{"source": "patent US6706740B2", "about": "“Fungicidal heterocyclic aromatic amides and their compositions, methods of use and preparation” (Dow AgroSciences LLC, priority 1999, dated 2004)"}
{"test_system": "Rhizoctonia solani (RHIZSO)", "test": "microbe, parasite or virus in culture", "format": "cell-based", "settings": "Rhizoctonia solani, read-out: RHIZSO in vitro Growth Inhibition", "units": {"inhibition at 25 ppm": "%"}}
{"smiles": "COc1ccnc(C(=O)NC2CC(C)(C)C=CC=C2C)c1OC(C)=O", "note": "(centres unmarked) [Compound 579]", "inhibition at 25 ppm": "< 80"}
{"smiles": "COc1ccnc(C(=O)NC2CC(C)(C)CC(C)(C(=O)CCCc3ccccc3)C2)c1O", "note": "(centres unmarked) [Compound 276]", "inhibition at 25 ppm": "< 80"}
{"smiles": "CC1(C)CC(NC(=O)c2nccc(Cl)c2O)CC(C)(C)C1", "note": "[Compound 480]", "inhibition at 25 ppm": "< 80"}
{"smiles": "O=C(Nc1cccc(Oc2cccc(C(F)(F)F)c2)c1)c1nc(Br)ccc1O", "note": "[Compound 495]", "inhibition at 25 ppm": "< 80"}
{"test_system": "Septoria tritici—SEPTTR", "test": "Leaf Blotch of Wheat, in vivo whole plant, 24 Hour Protectant", "settings": "Zymoseptoria tritici, 24 h, 100 ppm spray, 24 hour protectant, wheat; control of fungal infection vs untreated plants; read-out: SEPTTR in vivo 1 Day Protectant", "units": {"pest or weed control at 100 ppm": "%"}}
{"smiles": "COc1ccnc(C(=O)NC2CC(C)(C)CC(C)(C(=O)CCCc3ccccc3)C2)c1O", "note": "(centres unmarked) [Compound 276]", "pest or weed control at 100 ppm": "25 to 74"}
{"test_system": "Septoria tritici—SEPTTR", "test": "Leaf Blotch of Wheat, in vivo whole plant, 24 Hour Protectant", "settings": "Zymoseptoria tritici, 24 h, wheat plants sprayed at 100 ppm, inoculated after 24 hours; control of fungal infection vs untreated plants; read-out: SEPTTR in vivo 1 Day Protectant", "units": {"pest or weed control at 100 ppm": "%"}}
{"smiles": "CC1(C)CC(NC(=O)c2nccc(Cl)c2O)CC(C)(C)C1", "note": "[Compound 480]", "pest or weed control at 100 ppm": "< 25"}
{"smiles": "O=C(Nc1cccc(Oc2cccc(C(F)(F)F)c2)c1)c1nc(Br)ccc1O", "note": "[Compound 495]", "pest or weed control at 100 ppm": "25 to 74"}
{"test_system": "Septoria tritici—SEPTTR", "test": "Leaf Blotch of Wheat, in vivo whole plant, 24 Hour Protectant", "settings": "wheat plants sprayed at 100 ppm, inoculated after 24 hours; control of fungal infection vs untreated plants"}
{"smiles": "COc1ccnc(C(=O)NC2CC(C)(C)C=CC=C2C)c1OC(C)=O", "note": "(centres unmarked) [Compound 579]", "SEPTTR in vivo 1 Day Protectant": "+ +"}
{"test_system": "Erysiphe graminis—ERYSGT", "test": "Powdery Mildew of Wheat, in vivo whole plant, 24 Hour Protectant", "settings": "Erysiphe; 100 ppm spray, 24 hour protectant, wheat; control of fungal infection vs untreated plants; read-out: ERYSGT in vivo 1 Day Protectant", "units": {"pest or weed control at 100 ppm": "%"}}
{"smiles": "COc1ccnc(C(=O)NC2CC(C)(C)CC(C)(C(=O)CCCc3ccccc3)C2)c1O", "note": "(centres unmarked) [Compound 276]", "pest or weed control at 100 ppm": "< 25"}
{"test_system": "Erysiphe graminis—ERYSGT", "test": "Powdery Mildew of Wheat, in vivo whole plant, 24 Hour Protectant", "settings": "Erysiphe; wheat plants sprayed at 100 ppm, inoculated after 24 hours; control of fungal infection vs untreated plants; read-out: ERYSGT in vivo 1 Day Protectant", "units": {"pest or weed control at 100 ppm": "%"}}
{"smiles": "COc1ccnc(C(=O)NC2CC(C)(C)C=CC=C2C)c1OC(C)=O", "note": "(centres unmarked) [Compound 579]", "pest or weed control at 100 ppm": "< 25"}
{"smiles": "CC1(C)CC(NC(=O)c2nccc(Cl)c2O)CC(C)(C)C1", "note": "[Compound 480]", "pest or weed control at 100 ppm": "< 25"}
{"smiles": "O=C(Nc1cccc(Oc2cccc(C(F)(F)F)c2)c1)c1nc(Br)ccc1O", "note": "[Compound 495]", "pest or weed control at 100 ppm": "25 to 74"}
{"test_system": "Stagonospora nodorum (Leptosphaeria nodorum—LEPTNO)", "test": "In vitro fungal growth inhibition, Stagonospora nodorum (LEPTNO)", "format": "cell-based", "settings": "Leptosphaeria; 25 ppm in growth medium; read-out: LEPTNO in vitro Growth Inhibition", "units": {"inhibition at 25 ppm": "%"}}
{"smiles": "COc1ccnc(C(=O)NC2CC(C)(C)CC(C)(C(=O)CCCc3ccccc3)C2)c1O", "note": "(centres unmarked) [Compound 276]", "inhibition at 25 ppm": "> 80"}
{"test_system": "Stagonospora nodorum (Leptosphaeria nodorum—LEPTNO)", "test": "In vitro fungal growth inhibition, Stagonospora nodorum (LEPTNO)", "format": "cell-based", "settings": "Leptosphaeria; 25 ppm in the growth medium; read-out: LEPTNO in vitro Growth Inhibition", "units": {"inhibition at 25 ppm": "%"}}
{"smiles": "COc1ccnc(C(=O)NC2CC(C)(C)C=CC=C2C)c1OC(C)=O", "note": "(centres unmarked) [Compound 579]", "inhibition at 25 ppm": "< 80"}
{"smiles": "CC1(C)CC(NC(=O)c2nccc(Cl)c2O)CC(C)(C)C1", "note": "[Compound 480]", "inhibition at 25 ppm": "< 80"}
{"smiles": "O=C(Nc1cccc(Oc2cccc(C(F)(F)F)c2)c1)c1nc(Br)ccc1O", "note": "[Compound 495]", "inhibition at 25 ppm": "< 80"}
{"test_system": "Phytophthora infestans (PHYTIN)", "test": "microbe, parasite or virus in culture", "format": "cell-based", "settings": "Phytophthora infestans, read-out: PHYTIN in vitro Growth Inhibition", "units": {"inhibition at 25 ppm": "%"}}
{"smiles": "COc1ccnc(C(=O)NC2CC(C)(C)C=CC=C2C)c1OC(C)=O", "note": "(centres unmarked) [Compound 579]", "inhibition at 25 ppm": "< 80"}
{"smiles": "COc1ccnc(C(=O)NC2CC(C)(C)CC(C)(C(=O)CCCc3ccccc3)C2)c1O", "note": "(centres unmarked) [Compound 276]", "inhibition at 25 ppm": "< 80"}
{"smiles": "CC1(C)CC(NC(=O)c2nccc(Cl)c2O)CC(C)(C)C1", "note": "[Compound 480]", "inhibition at 25 ppm": "< 80"}
{"smiles": "O=C(Nc1cccc(Oc2cccc(C(F)(F)F)c2)c1)c1nc(Br)ccc1O", "note": "[Compound 495]", "inhibition at 25 ppm": "< 80"}
{"test_system": "Magnaporthe grisea (Pyricularia oryzae—PYRIOR)", "test": "microbe, parasite or virus in culture", "format": "cell-based", "settings": "Pyricularia oryzae, read-out: PYRIOR in vitro Growth Inhibition", "units": {"inhibition at 25 ppm": "%"}}
{"smiles": "COc1ccnc(C(=O)NC2CC(C)(C)C=CC=C2C)c1OC(C)=O", "note": "(centres unmarked) [Compound 579]", "inhibition at 25 ppm": "< 80"}
{"smiles": "COc1ccnc(C(=O)NC2CC(C)(C)CC(C)(C(=O)CCCc3ccccc3)C2)c1O", "note": "(centres unmarked) [Compound 276]", "inhibition at 25 ppm": "< 80"}
{"smiles": "CC1(C)CC(NC(=O)c2nccc(Cl)c2O)CC(C)(C)C1", "note": "[Compound 480]", "inhibition at 25 ppm": "> 80"}
{"smiles": "O=C(Nc1cccc(Oc2cccc(C(F)(F)F)c2)c1)c1nc(Br)ccc1O", "note": "[Compound 495]", "inhibition at 25 ppm": "< 80"}
{"test_system": "Ustilago maydis (USTIMA)", "test": "microbe, parasite or virus in culture", "format": "cell-based", "settings": "Mycosarcoma maydis, read-out: USTIMA in vitro Growth Inhibition", "units": {"inhibition at 25 ppm": "%"}}
{"smiles": "COc1ccnc(C(=O)NC2CC(C)(C)C=CC=C2C)c1OC(C)=O", "note": "(centres unmarked) [Compound 579]", "inhibition at 25 ppm": "< 80"}
{"smiles": "COc1ccnc(C(=O)NC2CC(C)(C)CC(C)(C(=O)CCCc3ccccc3)C2)c1O", "note": "(centres unmarked) [Compound 276]", "inhibition at 25 ppm": "< 80"}
{"smiles": "CC1(C)CC(NC(=O)c2nccc(Cl)c2O)CC(C)(C)C1", "note": "[Compound 480]", "inhibition at 25 ppm": "< 80"}
{"smiles": "O=C(Nc1cccc(Oc2cccc(C(F)(F)F)c2)c1)c1nc(Br)ccc1O", "note": "[Compound 495]", "inhibition at 25 ppm": "< 80"}
{"test_system": "Leptosphaeria nodorum—LEPTNO", "test": "Glume Blotch of Wheat, in vivo whole plant, 24 Hour Protectant", "settings": "100 ppm spray, 24 hour protectant, wheat; control of fungal infection vs untreated plants"}
{"smiles": "COc1ccnc(C(=O)NC2CC(C)(C)CC(C)(C(=O)CCCc3ccccc3)C2)c1O", "note": "(centres unmarked) [Compound 276]", "LEPTNO in vivo 1 Day Protectant": "+ +"}
{"test_system": "Leptosphaeria nodorum—LEPTNO", "test": "Glume Blotch of Wheat, in vivo whole plant, 24 Hour Protectant", "settings": "Leptosphaeria; wheat plants sprayed at 100 ppm, inoculated after 24 hours; control of fungal infection vs untreated plants; read-out: LEPTNO in vivo 1 Day Protectant", "units": {"pest or weed control at 100 ppm": "%"}}
{"smiles": "COc1ccnc(C(=O)NC2CC(C)(C)C=CC=C2C)c1OC(C)=O", "note": "(centres unmarked) [Compound 579]", "pest or weed control at 100 ppm": "< 25"}
{"smiles": "CC1(C)CC(NC(=O)c2nccc(Cl)c2O)CC(C)(C)C1", "note": "[Compound 480]", "pest or weed control at 100 ppm": "25 to 74"}
{"smiles": "O=C(Nc1cccc(Oc2cccc(C(F)(F)F)c2)c1)c1nc(Br)ccc1O", "note": "[Compound 495]", "pest or weed control at 100 ppm": "< 25"}
{"test_system": "Phytophthora infestans—PHYTIN", "test": "whole plant or invertebrate", "format": "in vivo", "settings": "Phytophthora, in Solanum lycopersicum, 24 h, read-out: PHYTIN in vivo 1 Day Protectant", "units": {"pest or weed control at 100 ppm": "%"}}
{"smiles": "COc1ccnc(C(=O)NC2CC(C)(C)C=CC=C2C)c1OC(C)=O", "note": "(centres unmarked) [Compound 579]", "pest or weed control at 100 ppm": "< 25"}
{"smiles": "COc1ccnc(C(=O)NC2CC(C)(C)CC(C)(C(=O)CCCc3ccccc3)C2)c1O", "note": "(centres unmarked) [Compound 276]", "pest or weed control at 100 ppm": "< 25"}
{"smiles": "CC1(C)CC(NC(=O)c2nccc(Cl)c2O)CC(C)(C)C1", "note": "[Compound 480]", "pest or weed control at 100 ppm": "< 25"}
{"smiles": "O=C(Nc1cccc(Oc2cccc(C(F)(F)F)c2)c1)c1nc(Br)ccc1O", "note": "[Compound 495]", "pest or weed control at 100 ppm": "< 25"}
{"test_system": "Mycosphaerella graminicola (Septoria tritici—SEPTTR)", "test": "In vitro fungal growth inhibition, Mycosphaerella graminicola (SEPTTR)", "format": "cell-based", "settings": "Zymoseptoria tritici; 25 ppm in growth medium; read-out: SEPTTR in vitro Growth Inhibition", "units": {"inhibition at 25 ppm": "%"}}
{"smiles": "COc1ccnc(C(=O)NC2CC(C)(C)CC(C)(C(=O)CCCc3ccccc3)C2)c1O", "note": "(centres unmarked) [Compound 276]", "inhibition at 25 ppm": "< 80"}
{"test_system": "Mycosphaerella graminicola (Septoria tritici—SEPTTR)", "test": "In vitro fungal growth inhibition, Mycosphaerella graminicola (SEPTTR)", "format": "cell-based", "settings": "Zymoseptoria tritici; 25 ppm in the growth medium; read-out: SEPTTR in vitro Growth Inhibition", "units": {"inhibition at 25 ppm": "%"}}
{"smiles": "COc1ccnc(C(=O)NC2CC(C)(C)C=CC=C2C)c1OC(C)=O", "note": "(centres unmarked) [Compound 579]", "inhibition at 25 ppm": "< 80"}
{"smiles": "CC1(C)CC(NC(=O)c2nccc(Cl)c2O)CC(C)(C)C1", "note": "[Compound 480]", "inhibition at 25 ppm": "< 80"}
{"smiles": "O=C(Nc1cccc(Oc2cccc(C(F)(F)F)c2)c1)c1nc(Br)ccc1O", "note": "[Compound 495]", "inhibition at 25 ppm": "< 80"}
{"test_system": "Puccinia recondita—PUCCRT", "test": "Brown Rust of Wheat, in vivo whole plant, 24 Hour Protectant", "settings": "Puccinia; 100 ppm spray, 24 hour protectant, wheat; control of fungal infection vs untreated plants; read-out: PUCCRT in vivo 1 Day Protectant", "units": {"pest or weed control at 100 ppm": "%"}}
{"smiles": "COc1ccnc(C(=O)NC2CC(C)(C)CC(C)(C(=O)CCCc3ccccc3)C2)c1O", "note": "(centres unmarked) [Compound 276]", "pest or weed control at 100 ppm": "25 to 74"}
{"test_system": "Puccinia recondita—PUCCRT", "test": "Brown Rust of Wheat, in vivo whole plant, 24 Hour Protectant", "settings": "Puccinia; wheat plants sprayed at 100 ppm, inoculated after 24 hours; control of fungal infection vs untreated plants; read-out: PUCCRT in vivo 1 Day Protectant", "units": {"pest or weed control at 100 ppm": "%"}}
{"smiles": "COc1ccnc(C(=O)NC2CC(C)(C)C=CC=C2C)c1OC(C)=O", "note": "(centres unmarked) [Compound 579]", "pest or weed control at 100 ppm": "< 25"}
{"smiles": "CC1(C)CC(NC(=O)c2nccc(Cl)c2O)CC(C)(C)C1", "note": "[Compound 480]", "pest or weed control at 100 ppm": "< 25"}
{"smiles": "O=C(Nc1cccc(Oc2cccc(C(F)(F)F)c2)c1)c1nc(Br)ccc1O", "note": "[Compound 495]", "pest or weed control at 100 ppm": "25 to 74"}
